Experimental data reported in US20110092448A1, “Peptide Conjugate for Oral Delivery of Hydrophilic Peptide Analgesics” (METABOLIC PHARMACEUTICALS LIMITED, priority 2005, published 2011).
Read-outs that look alike come from different tables or passages of the source.

Legend:
[1] = system: neuronal nicotinic acetylcholine receptor; format: cell-based, bovine
[2] = rat, in vivo
[3] = system: chronic neuropathy (CCI) in Sprague-Dawley rats; conditions: rat, in vivo
[4] = system: STZ diabetic Sprague-Dawley rats with neuropathic pain; conditions: rat, in vivo

Compound | catecholamine release in response to nicotine [1] | oral availability compared with subcutaneous (plasma concentrations) [2] | analgesic effect (relieving pain) [3] | analgesic effect (relieving pain) ([3]; po) | analgesic effect (relieving pain) ([3]; sc) | analgesic effect vs vehicle group ([3]; 2 mg/kg) | withdrawal threshold after one hour ([3]; 2 mg/kg) | relative oral availability [4] | minimum dose for maximal activity ([4]; po) [mg/kg] | oral absorption (time profile of effect) ([4]; po) | minimum dose for maximal activity ([4]; sc) [mg/kg]
CC[C@H](C)[C@@H]1NC(=O)[C@H](CCC(=O)O)NC(=O)[C@@H]2CCCN2C(=O)[C@H](Cc2cnc[nH]2)NC(=O)[C@H](CC(=O)O)NC(=O)[C@H](Cc2ccc(O)cc2)NC(=O)[C@H](CC(N)=O)NC(=O)[C@@H]2CSSC[C@H](NC(=O)CN)C(=O)N[C@@H](CSSC[C@@H](C(N)=O)NC1=O)C(=O)N[C@@H](CO)C(=O)N[C@@H](CC(=O)O)C(=O)N1CCC[C@H]1C(=O)N[C@@H](CCCNC(=N)N)C(=O)N2 [ACV1, Gly-Cys-Cys-Ser-Asp-Pro-Arg-Cys-Asn-Tyr-Asp-His-Pro-Glu-Ile-Cys-NH2] | decreased catecholamine release | 1-2% | not effective | not effective | effective |  |  |  |  |  | 
Ac-Tyr-Leu-Arg-Ile-Val-Gly-Cys-Cys-Ser-Asp-Pro-Arg-Cys-Asn-Tyr-Asp-His-Pro-Glu-Ile-Cys-NH2 (Ac-YLRIVGCCSDPRCNYDHPEIC-NH2; cysteine pairing not given here) [ACV3] | decreased catecholamine release |  |  |  |  | significant difference | increase in withdrawal threshold | 30-70% | ~0.3 | rapid | ~0.3
